# Results: ChEMBL document CHEMBL3399936, “Selective CB2 receptor agonists. Part 1: the identification of novel ligands through computer-aided drug design (CADD) approaches” (Bioorg Med Chem Lett, 2015)
# Experiments:
# [1] = biological target: Cannabinoid receptor 2 (Homo sapiens, UniProt P34972); test: Inhibition of human CB2 receptor expressed in CHO cells assessed as inhibition of forskolin-induced cAMP accumulation after 30 mins; type: functional, cell-based
# [2] = biological target: T1, Cannabinoid receptor 1 (Homo sapiens, UniProt P21554); test: Inhibition of human CB1 receptor expressed in CHO cells assessed as inhibition of forskolin-induced cAMP accumulation after 30 mins; type: functional, cell-based
# T1 sequence (P21554 whole entry): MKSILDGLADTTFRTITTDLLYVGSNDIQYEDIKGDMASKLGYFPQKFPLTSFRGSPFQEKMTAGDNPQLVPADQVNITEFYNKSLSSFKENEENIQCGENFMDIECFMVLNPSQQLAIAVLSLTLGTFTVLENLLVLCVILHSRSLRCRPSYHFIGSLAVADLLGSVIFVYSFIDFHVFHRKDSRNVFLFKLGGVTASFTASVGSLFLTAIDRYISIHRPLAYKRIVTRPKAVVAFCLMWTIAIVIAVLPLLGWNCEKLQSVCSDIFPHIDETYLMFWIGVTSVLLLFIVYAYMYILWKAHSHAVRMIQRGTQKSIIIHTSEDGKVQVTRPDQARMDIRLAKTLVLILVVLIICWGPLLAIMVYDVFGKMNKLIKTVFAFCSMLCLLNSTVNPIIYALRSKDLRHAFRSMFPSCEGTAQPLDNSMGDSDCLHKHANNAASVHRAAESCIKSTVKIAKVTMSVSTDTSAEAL
# [3] = species: Homo sapiens; test: Ratio of EC50 for human CB1 receptor to EC50 for human CB2 receptor
# [4] = biological target: T1, Cannabinoid receptor 1; test: Partial agonist activity at human CB1 receptor expressed in CHO cells assessed as cAMP accumulation after 30 mins; type: functional, cell-based
# [5] = Solubility of the compound at pH 7.4 after 16 to 18 hrs by UV spectrophotometry; type: physicochemical; conditions: buffer
# [6] = Half life in human liver microsomes at 1 uM by LC/MS/MS analysis; type: ADME
# Cannabinoid receptor 2, sequence (P34972 whole entry): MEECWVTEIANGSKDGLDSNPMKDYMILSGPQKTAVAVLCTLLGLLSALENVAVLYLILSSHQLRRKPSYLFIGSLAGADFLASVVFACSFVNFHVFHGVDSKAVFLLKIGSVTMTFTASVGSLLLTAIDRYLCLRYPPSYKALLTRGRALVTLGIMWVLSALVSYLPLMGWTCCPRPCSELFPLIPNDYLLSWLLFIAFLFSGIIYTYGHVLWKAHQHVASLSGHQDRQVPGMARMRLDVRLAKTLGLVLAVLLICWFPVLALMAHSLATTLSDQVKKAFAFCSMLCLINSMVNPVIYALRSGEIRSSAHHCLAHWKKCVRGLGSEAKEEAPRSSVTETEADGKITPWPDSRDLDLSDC
Compound,EC50 [1] [nM],EC50 [2] [nM],Ratio EC50 [3],Activity [4] [%],solubility [5] [µg/mL],half-life at 1 µM [6] [min]
CCCCc1ccc(NC(=O)N2CCN(C(=O)CCC3CCCC3)CC2)cc1,> 20,–,–,–,–,–
CC(C)(C)c1cc(NC(=O)[C@]2(C)CCCN2c2ccc(Cl)cc2)no1,–,54,257,–,–,–
CC(C)(C)c1cc(NC(=O)[C@H]2CCCN2c2ccc(C(F)(F)F)cc2)no1,–,–,–,< 70,–,–
O=C(Nc1cc(C(F)(F)F)on1)N1CCCN(C(=O)c2ccc(C(F)(F)F)cc2)CC1,1.4,1000,714,–,–,–
O=C(Nc1cc(C(F)(F)F)on1)N1CCCN(C(=O)c2ccc(C(F)(F)F)cn2)CC1,5,253,50,–,0.4,9
CC(C)(C)c1cc(NC(=O)C(C)(C)S(=O)(=O)c2ccc(C(F)(F)F)cn2)no1,3,420,140,–,12,< 5
CC(C)(C)c1cc(NC(=O)[C@]2(C)CCCN2c2ccc(C(F)(F)F)cc2)no1,0.29,15,52,–,–,–
CC(C)(C)c1cc(NC(=O)N2CC3CC2CN3C(=O)c2ccc(C(F)(F)F)cc2)no1 (stereo not given),> 20,–,–,–,–,–
CC(C)(C)c1cc(NC(=O)[C@H]2CCCN2c2ccc(Cl)cc2)no1,–,–,–,< 70,–,–
CC(C)(C)c1cc(NC(=O)[C@]2(C)CCCN2c2ccc(C(F)(F)F)cn2)no1,0.04,0.5,12,–,–,–
CC(C)(C)c1cc(NC(=O)[C@@H]2CCCN2c2ncc(C(F)(F)F)cc2Cl)no1,–,7,88,–,–,–
CC(C)(C)c1cc(NC(=O)C(C)(C)S(=O)(=O)c2ccc(C(F)(F)F)cc2)no1,0.77,420,545,–,–,–
